The values that follow come from ChEMBL document CHEMBL5465560, “Selectivity Literature for EUbOPEN Chemogenomic Library” (2024).

The target of assay [1] is MAP kinase-activated protein kinase 2 (Homo sapiens, UniProt P49137). In words: Selectivity interaction (Ambit KINOMEscan and KiNATiv profiling in Jurkat cells) EUB0000090b MAPKAPK2. Format: cell-based. The conditions noted are these: at 1 µM.
Assay [2] has as its target T1, Cytoplasmic tyrosine-protein kinase BMX (Homo sapiens) (UniProt P51813).
T1 sequence (whole entry): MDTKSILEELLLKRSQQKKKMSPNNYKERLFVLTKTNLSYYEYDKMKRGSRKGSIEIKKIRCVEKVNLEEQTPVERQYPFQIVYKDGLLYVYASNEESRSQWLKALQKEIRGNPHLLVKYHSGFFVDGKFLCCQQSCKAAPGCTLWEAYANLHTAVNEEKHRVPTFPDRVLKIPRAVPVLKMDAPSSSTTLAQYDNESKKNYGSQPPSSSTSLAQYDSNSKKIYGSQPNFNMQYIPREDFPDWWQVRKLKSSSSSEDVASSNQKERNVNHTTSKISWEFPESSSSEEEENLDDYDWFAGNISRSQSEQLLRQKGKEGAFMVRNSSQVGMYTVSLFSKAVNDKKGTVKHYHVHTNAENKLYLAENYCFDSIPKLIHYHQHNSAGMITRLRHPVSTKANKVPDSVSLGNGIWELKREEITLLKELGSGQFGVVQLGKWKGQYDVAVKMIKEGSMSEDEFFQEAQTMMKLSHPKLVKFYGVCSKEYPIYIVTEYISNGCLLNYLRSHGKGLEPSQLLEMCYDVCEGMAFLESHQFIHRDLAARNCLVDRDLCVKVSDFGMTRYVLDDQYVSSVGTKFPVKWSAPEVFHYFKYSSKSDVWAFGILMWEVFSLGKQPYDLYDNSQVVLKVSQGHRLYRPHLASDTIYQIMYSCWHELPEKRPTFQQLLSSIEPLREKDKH
In words: Selectivity interaction (Ambit KINOMEscan and KiNATiv profiling in Jurkat cells) EUB0000090b BMX. The class given is cell-based. The following applies: at 1 µM.

For assay [3], the system named is Mast/stem cell growth factor receptor Kit (Homo sapiens), P10721 [V559D]. The following applies: at 10 µM.
Assay [4] deals with Activin receptor type-1-like (Homo sapiens) (UniProt P37023). In words: Selectivity interaction (KinomeScan (DiscoverX)) EUB0001079a ACVRL1. The following applies: at 1 µM.
The target of assay [5] is T2, Serine/threonine-protein kinase TAO2 (Homo sapiens) (UniProt Q9UL54).
T2 sequence (whole entry): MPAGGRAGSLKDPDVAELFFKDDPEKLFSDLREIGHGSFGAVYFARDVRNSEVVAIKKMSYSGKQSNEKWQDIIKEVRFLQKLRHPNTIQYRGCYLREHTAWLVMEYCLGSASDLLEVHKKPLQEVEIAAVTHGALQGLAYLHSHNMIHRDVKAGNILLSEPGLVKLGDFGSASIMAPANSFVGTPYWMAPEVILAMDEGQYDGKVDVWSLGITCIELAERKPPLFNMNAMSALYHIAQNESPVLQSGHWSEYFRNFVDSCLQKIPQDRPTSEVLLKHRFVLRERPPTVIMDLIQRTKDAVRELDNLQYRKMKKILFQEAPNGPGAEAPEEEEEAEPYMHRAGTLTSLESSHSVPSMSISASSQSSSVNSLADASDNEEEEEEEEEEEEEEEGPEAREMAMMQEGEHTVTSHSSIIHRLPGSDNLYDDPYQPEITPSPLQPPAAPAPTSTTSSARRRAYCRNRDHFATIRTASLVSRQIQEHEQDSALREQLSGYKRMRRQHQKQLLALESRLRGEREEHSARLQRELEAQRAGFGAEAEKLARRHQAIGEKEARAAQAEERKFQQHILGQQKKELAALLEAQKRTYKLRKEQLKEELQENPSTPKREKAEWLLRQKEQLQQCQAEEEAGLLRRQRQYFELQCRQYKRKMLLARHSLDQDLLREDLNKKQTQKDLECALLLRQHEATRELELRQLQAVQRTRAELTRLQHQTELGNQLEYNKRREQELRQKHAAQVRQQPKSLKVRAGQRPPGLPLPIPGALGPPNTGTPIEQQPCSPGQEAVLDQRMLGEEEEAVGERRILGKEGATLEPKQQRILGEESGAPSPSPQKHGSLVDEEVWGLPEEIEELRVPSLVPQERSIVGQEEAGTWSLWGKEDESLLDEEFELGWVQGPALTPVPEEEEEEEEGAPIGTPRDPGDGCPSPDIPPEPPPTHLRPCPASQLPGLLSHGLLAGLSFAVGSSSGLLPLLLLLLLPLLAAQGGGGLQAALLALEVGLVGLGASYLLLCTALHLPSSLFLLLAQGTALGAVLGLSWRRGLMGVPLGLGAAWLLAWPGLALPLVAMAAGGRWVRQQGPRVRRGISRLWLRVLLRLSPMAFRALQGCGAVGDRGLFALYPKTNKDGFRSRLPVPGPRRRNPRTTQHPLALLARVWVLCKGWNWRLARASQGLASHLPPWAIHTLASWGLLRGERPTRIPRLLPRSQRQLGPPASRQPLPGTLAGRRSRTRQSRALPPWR
In words: Selectivity interaction (ActivX KiNativ screen (kinase selectivity in THP-1 cell lysates)) EUB0000639a TAOK2. The following applies: lysate. Format: subcellular.

Assay [6] concerns the target T3, Serine/threonine-protein kinase Sgk1 (Homo sapiens) (UniProt O00141).
T3 sequence (whole entry): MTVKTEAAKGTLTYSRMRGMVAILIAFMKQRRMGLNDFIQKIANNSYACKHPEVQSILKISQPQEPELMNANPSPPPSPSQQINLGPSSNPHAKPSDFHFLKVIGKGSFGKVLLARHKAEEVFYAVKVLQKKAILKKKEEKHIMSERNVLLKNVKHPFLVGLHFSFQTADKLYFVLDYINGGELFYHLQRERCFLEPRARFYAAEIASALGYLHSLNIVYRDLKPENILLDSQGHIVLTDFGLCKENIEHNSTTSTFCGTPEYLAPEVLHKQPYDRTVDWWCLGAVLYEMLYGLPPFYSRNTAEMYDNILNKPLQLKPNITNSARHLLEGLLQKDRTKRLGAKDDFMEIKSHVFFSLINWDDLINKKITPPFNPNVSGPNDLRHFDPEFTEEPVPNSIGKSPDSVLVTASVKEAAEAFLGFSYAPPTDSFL
In words: Selectivity interaction (Kinase screening (Nanosyn)) EUB0000604a SGK1.

Assay [7] has as its target Ribosomal protein S6 kinase alpha-1 (Homo sapiens, UniProt Q15418). In words: Selectivity interaction (KinomeScan (DiscoverX)) EUB0000045b RPS6KA1. The conditions noted are these: at 10 µM.

Chain of Ribosomal protein S6 kinase alpha-1 (Q15418 whole entry): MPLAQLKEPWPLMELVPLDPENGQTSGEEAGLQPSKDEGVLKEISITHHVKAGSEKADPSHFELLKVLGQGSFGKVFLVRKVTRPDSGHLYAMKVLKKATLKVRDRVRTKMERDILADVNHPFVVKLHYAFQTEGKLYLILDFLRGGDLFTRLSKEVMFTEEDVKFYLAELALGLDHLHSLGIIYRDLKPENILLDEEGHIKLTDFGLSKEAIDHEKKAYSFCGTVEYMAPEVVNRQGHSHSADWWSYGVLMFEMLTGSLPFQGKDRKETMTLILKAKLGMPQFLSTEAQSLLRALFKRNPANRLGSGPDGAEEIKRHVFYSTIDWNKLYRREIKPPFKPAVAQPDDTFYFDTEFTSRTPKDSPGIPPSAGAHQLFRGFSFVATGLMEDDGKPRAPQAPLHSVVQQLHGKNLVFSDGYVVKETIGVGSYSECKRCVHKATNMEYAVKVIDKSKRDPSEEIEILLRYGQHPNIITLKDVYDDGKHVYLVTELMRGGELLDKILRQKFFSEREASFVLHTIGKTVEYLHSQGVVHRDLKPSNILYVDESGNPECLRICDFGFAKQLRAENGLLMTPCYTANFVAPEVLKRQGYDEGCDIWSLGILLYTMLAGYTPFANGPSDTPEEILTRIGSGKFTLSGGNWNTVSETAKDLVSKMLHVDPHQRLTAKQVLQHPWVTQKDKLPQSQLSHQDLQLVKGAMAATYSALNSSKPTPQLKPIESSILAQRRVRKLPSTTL
Chain of MAP kinase-activated protein kinase 2 (P49137 whole entry, looked up): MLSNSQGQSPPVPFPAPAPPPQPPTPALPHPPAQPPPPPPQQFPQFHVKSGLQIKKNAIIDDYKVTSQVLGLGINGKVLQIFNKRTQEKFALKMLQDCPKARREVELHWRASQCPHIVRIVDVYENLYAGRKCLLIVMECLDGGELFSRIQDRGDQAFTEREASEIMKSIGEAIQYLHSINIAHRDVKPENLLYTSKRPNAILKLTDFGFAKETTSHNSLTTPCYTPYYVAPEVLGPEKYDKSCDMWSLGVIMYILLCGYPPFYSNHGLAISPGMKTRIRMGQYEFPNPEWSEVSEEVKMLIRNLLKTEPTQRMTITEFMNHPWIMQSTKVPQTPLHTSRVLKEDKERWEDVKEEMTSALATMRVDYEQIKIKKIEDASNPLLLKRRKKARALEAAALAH
Chain of Mast/stem cell growth factor receptor Kit (Homo sapiens), P10721 [V559D] (P10721 whole entry V559D): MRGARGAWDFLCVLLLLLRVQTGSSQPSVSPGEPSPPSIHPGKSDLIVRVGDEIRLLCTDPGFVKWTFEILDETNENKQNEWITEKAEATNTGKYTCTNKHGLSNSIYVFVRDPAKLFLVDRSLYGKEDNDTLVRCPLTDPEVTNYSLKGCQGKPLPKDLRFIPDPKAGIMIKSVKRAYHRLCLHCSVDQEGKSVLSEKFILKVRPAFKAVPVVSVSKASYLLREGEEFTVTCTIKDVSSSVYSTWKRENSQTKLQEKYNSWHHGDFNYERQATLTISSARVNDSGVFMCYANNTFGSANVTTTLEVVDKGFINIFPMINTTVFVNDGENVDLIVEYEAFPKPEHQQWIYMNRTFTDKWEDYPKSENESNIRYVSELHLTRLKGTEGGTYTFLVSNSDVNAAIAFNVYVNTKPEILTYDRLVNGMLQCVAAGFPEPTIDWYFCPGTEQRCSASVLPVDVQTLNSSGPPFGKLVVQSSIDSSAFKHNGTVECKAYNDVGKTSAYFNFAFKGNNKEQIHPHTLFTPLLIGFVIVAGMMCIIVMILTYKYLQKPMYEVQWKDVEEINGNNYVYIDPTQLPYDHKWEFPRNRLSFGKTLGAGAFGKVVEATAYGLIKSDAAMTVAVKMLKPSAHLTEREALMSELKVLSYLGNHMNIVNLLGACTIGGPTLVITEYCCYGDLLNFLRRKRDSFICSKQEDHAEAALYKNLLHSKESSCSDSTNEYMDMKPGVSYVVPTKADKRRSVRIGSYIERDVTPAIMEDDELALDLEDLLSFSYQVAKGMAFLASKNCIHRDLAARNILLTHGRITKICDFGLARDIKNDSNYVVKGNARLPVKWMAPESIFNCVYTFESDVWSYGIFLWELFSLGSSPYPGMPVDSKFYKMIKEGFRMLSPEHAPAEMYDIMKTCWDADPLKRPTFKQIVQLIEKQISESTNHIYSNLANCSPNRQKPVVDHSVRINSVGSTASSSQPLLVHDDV
Chain of Activin receptor type-1-like (Homo sapiens) (P37023 whole entry): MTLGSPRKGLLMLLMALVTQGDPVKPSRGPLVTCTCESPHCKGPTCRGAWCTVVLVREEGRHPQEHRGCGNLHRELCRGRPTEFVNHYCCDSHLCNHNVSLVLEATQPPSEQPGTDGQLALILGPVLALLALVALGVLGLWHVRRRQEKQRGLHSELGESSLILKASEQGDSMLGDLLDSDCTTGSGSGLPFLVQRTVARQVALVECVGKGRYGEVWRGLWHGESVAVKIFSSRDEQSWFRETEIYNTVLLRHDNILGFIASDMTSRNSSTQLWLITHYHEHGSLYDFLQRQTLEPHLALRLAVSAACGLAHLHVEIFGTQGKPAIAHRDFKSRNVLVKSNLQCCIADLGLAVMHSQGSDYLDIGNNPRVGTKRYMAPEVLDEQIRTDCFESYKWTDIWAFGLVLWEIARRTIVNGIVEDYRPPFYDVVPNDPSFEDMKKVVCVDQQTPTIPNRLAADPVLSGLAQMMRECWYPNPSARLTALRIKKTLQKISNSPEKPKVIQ

For `CN(C)C/C=C/C(=O)Nc1ccc(C(=O)N2CCCC(Nc3ncc(Cl)c(-c4c[nH]c5ccccc45)n3)C2)cc1` (stereo unspecified), the % of control in assay [1] was 97%; in assay [2] it was 95%.
As for `Cc1cc([C@@H](C)Nc2ccccc2C(=O)O)c2nc(N3CCOCC3)cc(=O)n2c1` [AZD-6482], the % of control in assay [3] is 91%.
Take `Nc1cnc(N2CCc3cc(S(=O)(=O)Nc4c(F)cc(Cl)cc4F)cc(N4CCCC4=O)c32)nc1` [TP-020n]: the % of control in assay [4] is 86%.
`CC[C@@H]1[C@H](F)C(=O)N[C@@H]1COc1nccc2cc(C(N)=O)c(OC)cc12` [ZIMLOVISERTIB]: the % of inhibition is 17.1% in assay [5] (at 0.01 µM); 2% in assay [5] (at 0.04 µM); -6.6% in assay [5] (at 0.2 µM); -12.9% in assay [5] (at 1 µM); 16.2% in assay [5] (at 5 µM).
For the molecule `Cc1cnc(Nc2ccc(F)cc2Cl)nc1-c1c[nH]c(C(=O)N[C@H](CO)c2cccc(Cl)c2)c1`, in assay [6], the % of inhibition was 15%.
As for `C=CC(=O)Nc1cc(-n2c(=O)ccc3cnc4ccc(-c5ccc(NS(C)(=O)=O)cc5)cc4c32)ccc1C`, the % of control in assay [7] turned out to be 78%.
